Laboratory results: patent US11767310B2, “Nicotinamide RIPK1 inhibitors” (AbbVie Inc., priority 2021, dated 2023)
Like-named read-outs stand apart in the source and are kept apart here.

How the values were obtained:
Assay in all cases: Kinase binding screen
Details in all cases: read-out: Percent Control at 100 nM Compound Concentration
RET(V804M) = RET(V804M) (Homo sapiens (Human), UniProt P07949, V804M)
ERBB4 = ERBB4 (Homo sapiens (Human), UniProt Q15303)
CAMKK1 = CAMKK1 (Homo sapiens (Human), UniProt Q8N5S9)
AMPK-alpha1 = AMPK-alpha1 (Homo sapiens (Human), UniProt Q13131)
AKT1 = AKT1 (Homo sapiens (Human), UniProt P31749)
AKT1, sequence (P31749 whole entry): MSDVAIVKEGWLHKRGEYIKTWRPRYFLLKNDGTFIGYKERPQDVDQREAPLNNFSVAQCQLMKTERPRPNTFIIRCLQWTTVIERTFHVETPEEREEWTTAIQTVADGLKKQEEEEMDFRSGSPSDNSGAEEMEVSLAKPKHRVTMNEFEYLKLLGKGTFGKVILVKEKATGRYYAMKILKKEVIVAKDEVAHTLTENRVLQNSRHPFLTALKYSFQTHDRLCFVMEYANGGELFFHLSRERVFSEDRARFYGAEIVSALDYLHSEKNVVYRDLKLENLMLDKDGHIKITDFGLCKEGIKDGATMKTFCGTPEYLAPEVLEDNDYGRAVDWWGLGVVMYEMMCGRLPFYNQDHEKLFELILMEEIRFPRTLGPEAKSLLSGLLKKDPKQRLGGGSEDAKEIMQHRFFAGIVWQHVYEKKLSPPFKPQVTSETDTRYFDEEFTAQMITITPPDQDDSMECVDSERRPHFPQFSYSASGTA

TRPM6 = TRPM6 (Homo sapiens (Human), UniProt Q9BX84)
TRPM6, sequence (Q9BX84 whole entry): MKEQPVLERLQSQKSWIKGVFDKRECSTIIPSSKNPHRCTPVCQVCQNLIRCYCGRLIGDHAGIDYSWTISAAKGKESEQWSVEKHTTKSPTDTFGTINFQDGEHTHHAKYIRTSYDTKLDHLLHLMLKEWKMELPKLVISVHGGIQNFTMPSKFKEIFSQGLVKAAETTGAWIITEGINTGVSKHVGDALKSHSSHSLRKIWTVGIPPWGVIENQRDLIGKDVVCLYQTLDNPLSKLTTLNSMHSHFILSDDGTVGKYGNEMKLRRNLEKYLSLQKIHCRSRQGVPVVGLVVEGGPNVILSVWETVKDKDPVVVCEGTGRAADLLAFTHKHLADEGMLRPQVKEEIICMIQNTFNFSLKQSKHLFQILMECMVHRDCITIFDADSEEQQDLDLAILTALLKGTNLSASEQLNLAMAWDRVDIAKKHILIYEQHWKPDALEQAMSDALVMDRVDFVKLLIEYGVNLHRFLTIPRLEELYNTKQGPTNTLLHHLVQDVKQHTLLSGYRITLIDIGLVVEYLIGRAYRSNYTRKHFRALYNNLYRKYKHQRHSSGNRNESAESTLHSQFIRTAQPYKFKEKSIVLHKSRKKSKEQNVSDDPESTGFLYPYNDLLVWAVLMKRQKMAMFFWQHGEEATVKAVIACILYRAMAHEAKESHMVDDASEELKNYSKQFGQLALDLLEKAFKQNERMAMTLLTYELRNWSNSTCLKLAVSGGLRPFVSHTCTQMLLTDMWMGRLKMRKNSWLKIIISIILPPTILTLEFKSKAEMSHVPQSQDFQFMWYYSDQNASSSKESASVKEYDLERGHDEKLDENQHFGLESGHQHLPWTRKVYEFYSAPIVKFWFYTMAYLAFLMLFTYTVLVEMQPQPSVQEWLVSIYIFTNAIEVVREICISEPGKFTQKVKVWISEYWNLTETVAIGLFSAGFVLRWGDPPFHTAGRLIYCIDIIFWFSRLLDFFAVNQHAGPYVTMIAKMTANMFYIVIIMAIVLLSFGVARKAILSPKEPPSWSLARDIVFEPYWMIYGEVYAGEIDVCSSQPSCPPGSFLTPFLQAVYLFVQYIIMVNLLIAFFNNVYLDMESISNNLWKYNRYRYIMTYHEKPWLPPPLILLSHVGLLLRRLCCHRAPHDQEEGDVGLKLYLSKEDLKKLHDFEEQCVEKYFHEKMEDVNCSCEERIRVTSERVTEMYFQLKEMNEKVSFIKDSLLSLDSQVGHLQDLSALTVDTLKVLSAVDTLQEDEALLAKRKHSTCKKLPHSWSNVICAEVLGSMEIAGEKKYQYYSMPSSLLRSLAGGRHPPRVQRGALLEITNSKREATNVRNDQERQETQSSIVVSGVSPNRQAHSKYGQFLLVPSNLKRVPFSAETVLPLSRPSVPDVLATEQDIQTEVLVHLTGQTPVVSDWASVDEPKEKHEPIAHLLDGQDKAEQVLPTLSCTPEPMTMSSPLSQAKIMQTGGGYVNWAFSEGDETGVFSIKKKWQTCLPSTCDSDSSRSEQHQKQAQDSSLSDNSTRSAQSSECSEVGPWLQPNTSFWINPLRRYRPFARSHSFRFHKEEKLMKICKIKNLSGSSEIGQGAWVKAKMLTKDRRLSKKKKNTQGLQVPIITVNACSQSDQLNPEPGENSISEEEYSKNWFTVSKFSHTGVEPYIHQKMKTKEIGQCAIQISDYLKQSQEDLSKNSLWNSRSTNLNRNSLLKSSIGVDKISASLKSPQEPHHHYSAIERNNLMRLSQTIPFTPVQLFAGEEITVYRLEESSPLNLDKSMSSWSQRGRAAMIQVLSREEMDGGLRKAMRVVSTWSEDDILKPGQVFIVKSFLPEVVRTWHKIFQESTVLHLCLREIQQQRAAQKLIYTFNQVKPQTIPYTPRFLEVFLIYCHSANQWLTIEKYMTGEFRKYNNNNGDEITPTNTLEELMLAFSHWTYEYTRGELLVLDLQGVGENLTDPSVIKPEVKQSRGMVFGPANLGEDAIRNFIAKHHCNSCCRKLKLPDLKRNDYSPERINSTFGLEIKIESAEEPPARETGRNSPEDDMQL

MINK = MINK (Homo sapiens (Human), UniProt Q8N4C8)
MINK, sequence (Q8N4C8 whole entry): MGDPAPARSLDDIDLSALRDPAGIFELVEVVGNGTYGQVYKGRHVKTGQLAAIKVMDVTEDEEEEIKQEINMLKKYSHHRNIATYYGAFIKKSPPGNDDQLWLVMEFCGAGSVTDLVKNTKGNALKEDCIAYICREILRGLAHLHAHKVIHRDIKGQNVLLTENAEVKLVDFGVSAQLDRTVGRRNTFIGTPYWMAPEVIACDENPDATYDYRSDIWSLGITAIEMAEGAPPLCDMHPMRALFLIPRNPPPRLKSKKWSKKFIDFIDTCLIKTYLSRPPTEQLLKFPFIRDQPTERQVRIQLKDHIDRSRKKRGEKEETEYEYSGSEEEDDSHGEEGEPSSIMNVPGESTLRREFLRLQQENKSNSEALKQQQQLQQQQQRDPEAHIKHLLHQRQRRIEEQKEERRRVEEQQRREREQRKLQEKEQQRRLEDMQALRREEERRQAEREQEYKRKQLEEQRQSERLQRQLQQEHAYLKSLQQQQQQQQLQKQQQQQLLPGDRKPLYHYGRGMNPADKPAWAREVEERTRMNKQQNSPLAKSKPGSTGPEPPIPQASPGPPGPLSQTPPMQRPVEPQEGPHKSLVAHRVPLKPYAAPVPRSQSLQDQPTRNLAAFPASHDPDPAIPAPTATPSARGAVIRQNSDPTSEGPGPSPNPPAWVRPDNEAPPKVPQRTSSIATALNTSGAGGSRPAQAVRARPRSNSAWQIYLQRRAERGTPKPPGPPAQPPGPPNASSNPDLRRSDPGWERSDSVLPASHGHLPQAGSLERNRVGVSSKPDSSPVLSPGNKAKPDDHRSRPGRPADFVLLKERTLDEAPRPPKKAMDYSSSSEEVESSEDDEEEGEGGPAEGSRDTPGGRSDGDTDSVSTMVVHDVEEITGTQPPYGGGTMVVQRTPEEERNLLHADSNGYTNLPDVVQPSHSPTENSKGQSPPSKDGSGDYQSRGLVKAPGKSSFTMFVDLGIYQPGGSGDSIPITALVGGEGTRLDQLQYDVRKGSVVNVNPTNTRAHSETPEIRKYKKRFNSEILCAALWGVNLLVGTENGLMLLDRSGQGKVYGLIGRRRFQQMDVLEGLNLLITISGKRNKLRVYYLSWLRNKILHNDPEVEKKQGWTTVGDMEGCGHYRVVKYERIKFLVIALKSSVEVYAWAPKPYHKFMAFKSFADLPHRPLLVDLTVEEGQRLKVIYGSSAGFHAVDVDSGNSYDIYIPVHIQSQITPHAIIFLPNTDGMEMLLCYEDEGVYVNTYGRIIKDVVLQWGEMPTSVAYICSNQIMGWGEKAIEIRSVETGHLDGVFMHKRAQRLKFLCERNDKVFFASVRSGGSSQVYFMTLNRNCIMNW

MST3 = MST3 (Homo sapiens (Human), UniProt Q9Y6E0)
FAK = FAK (Homo sapiens (Human), UniProt Q05397)
p38-alpha = p38-alpha (Homo sapiens (Human), UniProt Q16539)
RIPK4 = RIPK4 (Homo sapiens (Human), UniProt P57078)
CDKL1 = CDKL1 (Homo sapiens (Human), UniProt Q00532)
AXL = AXL (Homo sapiens (Human), UniProt P30530)
CHEK1 = CHEK1 (Homo sapiens (Human), UniProt O14757)
ABL1-nonphosphorylated = ABL1-nonphosphorylated (Homo sapiens (Human), UniProt P00519)
LZK = LZK (Homo sapiens (Human), UniProt O43283)
LIMK1 = LIMK1 (Homo sapiens (Human), UniProt P53667)
CSNK1E = CSNK1E (Homo sapiens (Human), UniProt P49674)
BRSK2 = BRSK2 (Homo sapiens (Human), UniProt Q8IWQ3)
FGFR2 = FGFR2 (Homo sapiens (Human), UniProt P21802)
TAK1 = TAK1 (Homo sapiens (Human), UniProt O43318)
[1] = target: ABL1(E255K)-phosphorylated (Homo sapiens (Human), UniProt P00519, E255K)
CSNK2A1 = CSNK2A1 (Homo sapiens (Human), UniProt P68400)
HIPK3 = HIPK3 (Homo sapiens (Human), UniProt Q9H422)
ADCK4 = ADCK4 (Homo sapiens (Human), UniProt Q96D53)
NIM1 = NIM1 (Homo sapiens (Human), UniProt Q8IY84)
ACVR1B = ACVR1B (Homo sapiens (Human), UniProt P36896)
[2] = target: ABL1(H396P)-phosphorylated (Homo sapiens (Human), UniProt P00519, H396P)
MEK1 = MEK1 (Homo sapiens (Human), UniProt Q02750)

ERBB4, sequence (Q15303 26-1308): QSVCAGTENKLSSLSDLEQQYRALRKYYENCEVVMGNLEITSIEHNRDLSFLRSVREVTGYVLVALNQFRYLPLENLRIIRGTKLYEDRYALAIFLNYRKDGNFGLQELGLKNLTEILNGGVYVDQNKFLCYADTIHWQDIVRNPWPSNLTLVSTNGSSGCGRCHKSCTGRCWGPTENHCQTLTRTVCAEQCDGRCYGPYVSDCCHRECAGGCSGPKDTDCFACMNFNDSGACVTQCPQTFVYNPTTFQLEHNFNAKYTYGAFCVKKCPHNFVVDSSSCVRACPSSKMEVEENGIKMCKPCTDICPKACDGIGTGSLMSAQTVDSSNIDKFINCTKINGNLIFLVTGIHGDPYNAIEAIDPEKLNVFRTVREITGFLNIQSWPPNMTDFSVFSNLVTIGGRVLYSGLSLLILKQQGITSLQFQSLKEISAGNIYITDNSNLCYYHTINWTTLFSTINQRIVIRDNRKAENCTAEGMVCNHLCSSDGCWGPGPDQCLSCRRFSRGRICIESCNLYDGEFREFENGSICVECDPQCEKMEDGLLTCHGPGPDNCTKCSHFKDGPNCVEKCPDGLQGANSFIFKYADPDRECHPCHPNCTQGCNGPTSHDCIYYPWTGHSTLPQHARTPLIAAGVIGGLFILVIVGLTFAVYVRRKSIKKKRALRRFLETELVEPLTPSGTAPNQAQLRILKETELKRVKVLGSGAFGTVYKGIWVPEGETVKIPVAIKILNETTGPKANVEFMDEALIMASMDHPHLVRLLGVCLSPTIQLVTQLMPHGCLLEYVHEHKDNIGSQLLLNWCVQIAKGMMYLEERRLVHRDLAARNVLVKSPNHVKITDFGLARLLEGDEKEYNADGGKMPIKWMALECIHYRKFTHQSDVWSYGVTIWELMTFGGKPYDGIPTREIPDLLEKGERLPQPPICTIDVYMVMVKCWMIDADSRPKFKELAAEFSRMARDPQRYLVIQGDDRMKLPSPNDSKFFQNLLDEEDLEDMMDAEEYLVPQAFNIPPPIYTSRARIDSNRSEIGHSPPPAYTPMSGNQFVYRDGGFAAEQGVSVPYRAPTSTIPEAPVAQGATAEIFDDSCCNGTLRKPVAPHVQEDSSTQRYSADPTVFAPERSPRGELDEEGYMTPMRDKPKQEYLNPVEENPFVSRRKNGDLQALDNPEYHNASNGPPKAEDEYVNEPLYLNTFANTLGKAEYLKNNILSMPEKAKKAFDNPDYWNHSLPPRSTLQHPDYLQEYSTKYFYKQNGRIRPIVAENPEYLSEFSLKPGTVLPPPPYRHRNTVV

## CN(C[C@@H](O)Cc1ccccc1)C(=O)c1cncc(C#Cc2cnn(C(F)F)c2)c1 [Example 2, (S)-5-((1-(difluoromethyl)-1H-pyrazol-4-yl)ethynyl)-N-(2-hydroxy-3-phenylpropyl)-N-methylnicotinamide]
RET(V804M); RET(V804M)
  remaining activity at 0.1 µM: 100%
ERBB4; ERBB4
  remaining activity at 0.1 µM: 94%
CAMKK1; CAMKK1
  remaining activity at 0.1 µM: 100%
AMPK-alpha1; AMPK-alpha1
  remaining activity at 0.1 µM: 100%
AKT1; AKT1
  remaining activity at 0.1 µM: 100%
TRPM6; TRPM6
  remaining activity at 0.1 µM: 99%
MINK; MINK
  remaining activity at 0.1 µM: 100%
MST3; MST3
  remaining activity at 0.1 µM: 100%
FAK; FAK
  remaining activity at 0.1 µM: 100%
p38-alpha; p38-alpha
  remaining activity at 0.1 µM: 100%
RIPK4; RIPK4
  remaining activity at 0.1 µM: 100%
CDKL1; CDKL1
  remaining activity at 0.1 µM: 100%
AXL; AXL
  remaining activity at 0.1 µM: 100%
CHEK1; CHEK1
  remaining activity at 0.1 µM: 100%
ABL1-nonphosphorylated; ABL1-nonphosphorylated
  remaining activity at 0.1 µM: 72%
LZK; LZK
  remaining activity at 0.1 µM: 99%
LIMK1; LIMK1
  remaining activity at 0.1 µM: 100%
CSNK1E; CSNK1E
  remaining activity at 0.1 µM: 67%
BRSK2; BRSK2
  remaining activity at 0.1 µM: 96%
FGFR2; FGFR2
  remaining activity at 0.1 µM: 100%
TAK1; TAK1
  remaining activity at 0.1 µM: 97%
[1]; ABL1(E255K)-phosphorylated
  remaining activity at 0.1 µM: 86%
CSNK2A1; CSNK2A1
  remaining activity at 0.1 µM: 98%
HIPK3; HIPK3
  remaining activity at 0.1 µM: 100%
ADCK4; ADCK4
  remaining activity at 0.1 µM: 100%
NIM1; NIM1
  remaining activity at 0.1 µM: 89%
ACVR1B; ACVR1B
  remaining activity at 0.1 µM: 100%
[2]; ABL1(H396P)-phosphorylated
  remaining activity at 0.1 µM: 94%
MEK1; MEK1
  remaining activity at 0.1 µM: 98%

## CN(C[C@H](Cc1ccccc1)OP(=O)(O)O)C(=O)c1cncc(C#Cc2cnn(C(F)F)c2)c1 [Example 19, (S)-1-(5-((1-(difluoromethyl)-1H-pyrazol-4-yl)ethynyl)-N-methylnicotinamido)-3-phenylpropan-2-yl dihydrogen phosphate]
RET(V804M)
  remaining activity at 0.1 µM: 100%
ERBB4
  remaining activity at 0.1 µM: 93%
CAMKK1
  remaining activity at 0.1 µM: 100%
AMPK-alpha1
  remaining activity at 0.1 µM: 100%
AKT1
  remaining activity at 0.1 µM: 100%
TRPM6
  remaining activity at 0.1 µM: 95%
MINK
  remaining activity at 0.1 µM: 100%
MST3
  remaining activity at 0.1 µM: 100%
FAK
  remaining activity at 0.1 µM: 100%
p38-alpha
  remaining activity at 0.1 µM: 100%
RIPK4
  remaining activity at 0.1 µM: 100%
CDKL1
  remaining activity at 0.1 µM: 100%
AXL
  remaining activity at 0.1 µM: 96%
CHEK1
  remaining activity at 0.1 µM: 100%
ABL1-nonphosphorylated
  remaining activity at 0.1 µM: 96%
LZK
  remaining activity at 0.1 µM: 99%
LIMK1
  remaining activity at 0.1 µM: 100%
CSNK1E
  remaining activity at 0.1 µM: 74%
BRSK2
  remaining activity at 0.1 µM: 95%
FGFR2
  remaining activity at 0.1 µM: 100%
TAK1
  remaining activity at 0.1 µM: 95%
[1]
  remaining activity at 0.1 µM: 91%
CSNK2A1
  remaining activity at 0.1 µM: 98%
HIPK3
  remaining activity at 0.1 µM: 88%
ADCK4
  remaining activity at 0.1 µM: 100%
NIM1
  remaining activity at 0.1 µM: 89%
ACVR1B
  remaining activity at 0.1 µM: 100%
[2]
  remaining activity at 0.1 µM: 93%
MEK1
  remaining activity at 0.1 µM: 99%
